Experiments:
[1] = TGA/SDTA and TGMS analysis; type: physicochemical; details: heating 25° C. to 300° C. at 10° C./min
Protocol: 3. TGA/SDTA and TGMS Analysis
A mass loss caused by solvent or a moisture loss from crystals was determined by thermogravimetric analysis/simultaneous differential thermal analysis (TGA/SDTA). A weight versus temperature curve was generated by monitoring the weight of samples during heating in a TGA/SDTA851e apparatus (product name, Mettler-Toledo GmbH, Switzerland). TGA/SDTA851e was calibrated with indium and aluminum samples. The sample was placed in a 100 μL aluminum crucible and sealed, and then a pin-hole was drilled therein. The crucible was heated from 25° C. to 300° C. in TGA at a heating rate of 10° C./min. Dry N2 gas was used for purging. The gas coming out of the TGA sample was analyzed by Omnistar GSD 301 T2 (product name, Pfeiffer Vacuum GmbH, Germany), which was a quadrupole mass spectrometer for analyzing a mass in the range of 0-200 amu.

[2] = Physical stability evaluation under stress conditions (XRPD before/after); type: physicochemical; details: stored at 60° C.±2° C./80% RH±5% for two days, packaged ((LPDE+N2)+silica gel 1 g+LDPE)+Al-Bag
Protocol: 1. XRPD Analysis A plate for obtaining an XRPD pattern was mounted on a Bruker General Area Detector Diffraction System (GADDS) equipped with a VANTEC-500 gas domain detector calibrated for intensity and geometric changes. Calibration of measurement accuracy (peak position) was performed using NIST SRM1976 standard (Corundum). Data collection was performed at room temperature using monochromatic CuKα radiation in a diffraction angle (2θ) region of 1.5° to 41.5°, the most distinct part of the XRPD pattern. The diffraction pattern of each well was collected at two 2θ ranges (1.5°≤2θ≤21.5° for a first frame and 9.5°≤2θ≤41.5° for a second frame) with an exposure time of 90 seconds for each frame. No background subtraction or curve smoothing was applied to the XRPD pattern. The carrier material used in the XRPD analysis was transparent to X-rays.
4. Experiment on Physical Stability Evaluation
Samples were packaged in the form of ((LPDE+N2)+silica gel 1 g+LDPE)+Al-Bag, and stored under stress conditions (60° C.±2° C./80% RH±5%) for two days before evaluation.

Row | SMILES | start of thermal decomposition ([1]; TGA) | mass reduction rate (thermogravimetric analysis) ([1]; at 150° C.) [%] | change in the XPRD pattern before/after the stress conditions (physical stability) [2]
1 | C[C@@H]1CN(C(=O)CC#N)CC=C1c1cc(NC(=O)C2CC2)nc2[nH]ccc12 [(S)-N-(4-(1-(2-cyanoacetyl)-3-methyl-1,2,3,6-tetrahydropyridin-4-yl)-1H-pyrrolo[2,3-b]pyridin-6-yl)cyclopropanecarboxamide] | about 260 °C | 1.6 | 
2 | C[C@@H]1CN(C(=O)CC#N)CC=C1c1cc(NC(=O)C2CC2)nc2[nH]ccc12 [Example 1, (S)-N-(4-(1-(2-cyanoacetyl)-3-methyl-1,2,3,6-tetrahydropyridin-4-yl)-1H-pyrrolo[2,3-b]pyridin-6-yl)cyclopropanecarboxamide] |  |  | substantially no change in the XPRD pattern

Reference: patent publication US20240051957A1, “CRYSTALLINE FORM OF HETEROCYCLIC COMPOUND AS PROTEIN KINASE INHIBITOR” (HK INNO.N CORPORATION, priority 2021, published 2024)
